One molecule from patent US7179806B2, “Δ1-pyrrolines used as pesticides” (Bayer Cropscience AG, priority 2000, dated 2007) can be followed below.

In the assay the test system is army worm (Spodoptera exigua) caterpillars. Nature of the assay: Spodoptera exigua test (cabbage leaves dipped). The format is in vivo. Conditions: active compound concentration 1000 ppm. The procedure:
Spodoptera Exigua Test To produce a suitable preparation of active compound, 1 part by weight of active compound is mixed with the stated amounts of solvent and emulsifier, and the concentrate is diluted with emulsifier-containing water to the desired concentration. Cabbage leaves (Brassica oleracea) are treated by being dipped into the preparation of active compound of the desired concentration and are populated with army worm (Spodoptera exigua) caterpillars whilst the leaves are still moist. After the desired period of time, the kill in % is determined. 100% means that all caterpillars have been killed; 0% means that none of the caterpillars have been killed.

Consider `Fc1cccc(F)c1C1=NC(c2ccc(-c3ccc(N4CCOCC4)nc3)cc2)CC1` (stereo not shown) [drawing 279], for which the “Kill rate in % after 7 d” value is given as 100%.
